# Literature values, collected in patent US20100172981A1, “Ibuprofen-Effervescent Preparation Having a High Dissolution Rate and Method for the Production thereof” (Losan Pharma GMBH, priority 2006, published 2010).
# Settings: general statement in the background section
compound,measurement,value
CC(C)Cc1ccc(C(C)C(=O)O)cc1.[Na] (stereo not shown) [ibuprofen-sodium],"solubility / dissolution in water (words, background)",dissolves only slowly in water
